Test results published in PubChem BioAssay AID1963875 (Molecular Pharmacology Branch, DTP, NCI, 2024).
Several values for one entry are separate records, joined by “and”; a condition that tells them apart may be missing. Equal entries are not always repeated.

System: KRAS-mutant PDC complex spheroid viability
Experiment: Anticancer human tumor 186277-243-T-J2-PDC patient-derived colon adenocarcinoma cell line growth inhibition [KRAS2]
Settings: for viability, T/C: stronger effect = lower value; active = viability on the fitted dose curve at most 10% of control; inactive = the rest
How it was run: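 KRAS-mutant tumor cells were grown as spheroids with HUVEC endothelial cells and human MSCs as stroma. Targeted agents were tested alone and with KRAS pathway inhibitors. Doses started at or near clinical Cmax, or 10 microM, descending half-log.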

[1] = curve of first compound, second compound 0.1 µM
[2] = curve of first compound, second compound 0.316 µM
[3] = curve of first compound, second compound 1 µM
[4] = curve of first compound, second compound 3.16 µM
[5] = curve of first compound, second compound 10 µM
[6] = second compound 0.1 µM, first compound 0.00316 µM
[7] = second compound 0.1 µM, first compound 0.01 µM
[8] = second compound 0.1 µM, first compound 0.0316 µM
[9] = second compound 0.1 µM, first compound 0.1 µM
[10] = second compound 0.316 µM, first compound 0.00316 µM
[11] = second compound 0.316 µM, first compound 0.01 µM
[12] = second compound 0.316 µM, first compound 0.0316 µM
[13] = second compound 0.316 µM, first compound 0.1 µM
[14] = second compound 1 µM, first compound 0.00316 µM
[15] = second compound 1 µM, first compound 0.01 µM
[16] = second compound 1 µM, first compound 0.0316 µM
[17] = second compound 1 µM, first compound 0.1 µM
[18] = second compound 3.16 µM, first compound 0.00316 µM
[19] = second compound 3.16 µM, first compound 0.01 µM
[20] = second compound 3.16 µM, first compound 0.0316 µM
[21] = second compound 3.16 µM, first compound 0.1 µM
[22] = second compound 10 µM, first compound 0.00316 µM
[23] = second compound 10 µM, first compound 0.01 µM
[24] = second compound 10 µM, first compound 0.0316 µM
[25] = second compound 10 µM, first compound 0.1 µM
[26] = second compound 0.1 µM, first compound 0.316 µM
[27] = second compound 0.1 µM, first compound 1 µM
[28] = second compound 0.1 µM, first compound 3.16 µM
[29] = second compound 0.1 µM, first compound 10 µM
[30] = second compound 0.316 µM, first compound 0.316 µM
[31] = second compound 0.316 µM, first compound 1 µM
[32] = second compound 0.316 µM, first compound 3.16 µM
[33] = second compound 0.316 µM, first compound 10 µM
[34] = second compound 1 µM, first compound 0.316 µM
[35] = second compound 1 µM, first compound 1 µM
[36] = second compound 1 µM, first compound 3.16 µM
[37] = second compound 1 µM, first compound 10 µM
[38] = second compound 3.16 µM, first compound 0.316 µM
[39] = second compound 3.16 µM, first compound 1 µM
[40] = second compound 3.16 µM, first compound 3.16 µM
[41] = second compound 3.16 µM, first compound 10 µM
[42] = second compound 10 µM, first compound 0.316 µM
[43] = second compound 10 µM, first compound 1 µM
[44] = second compound 10 µM, first compound 3.16 µM
[45] = second compound 10 µM, first compound 10 µM
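For viability, T/C in this document: viability read after seven days of compound exposure; 100% = DMSO vehicle-treated spheroids so lower means less viable.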

Cn1ncnc1[C@H]1c2n[nH]c(=O)c3cc(F)cc(c23)N[C@@H]1c1ccc(F)cc1 + COc1cc2nc(C)nc(NC(C)c3cc(N)cc(C(F)(F)F)c3)c2cc1OC1CCOC1
> 100 nM: IC50 [1] | IC50 [2] | IC50 [3] | IC50 [4]
9.92 nM: IC50 [5]
inactive: viability, T/C (second compound 0.1 µM, first compound 0.000316 µM) 98.7% | viability, T/C (second compound 0.1 µM, first compound 0.001 µM) 107% | viability, T/C [6] 106% | viability, T/C [7] 109% | viability, T/C [8] 103% | viability, T/C [9] 79.1% | viability, T/C (second compound 0.316 µM, first compound 0.000316 µM) 108% | viability, T/C (second compound 0.316 µM, first compound 0.001 µM) 120% | viability, T/C [10] 105% | viability, T/C [11] 89.4% | viability, T/C [12] 90.5% | viability, T/C [13] 74.5% | viability, T/C (second compound 1 µM, first compound 0.000316 µM) 109% | viability, T/C (second compound 1 µM, first compound 0.001 µM) 112% | viability, T/C [14] 104% | viability, T/C [15] 99.2% | viability, T/C [16] 83.4% | viability, T/C [17] 64.5% | viability, T/C (second compound 3.16 µM, first compound 0.000316 µM) 81.8% | viability, T/C (second compound 3.16 µM, first compound 0.001 µM) 116% | viability, T/C [18] 108% | viability, T/C [19] 86.3% | viability, T/C [20] 74.7% | viability, T/C [21] 63.9% | viability, T/C (second compound 10 µM, first compound 0.000316 µM) 79.2% | viability, T/C (second compound 10 µM, first compound 0.001 µM) 68.5% | viability, T/C [22] 63.6% | viability, T/C [23] 45.5% | viability, T/C [24] 42.2% | viability, T/C [25] 25%

CC1(C)CCC(CN2CCN(c3ccc(C(=O)NS(=O)(=O)c4ccc(NCC5CCOCC5)c([N+](=O)[O-])c4)c(Oc4cnc5[nH]ccc5c4)c3)CC2)=C(c2ccc(Cl)cc2)C1 + CNCc1ccccc1-c1csc(C(C)Nc2nc(C)nc3cc(OC)c(OC)cc23)c1
< 31.6 nM: IC50 [5]
2130 nM: IC50 [1]
active: viability, T/C [29] 1.52% | viability, T/C [33] 1.59% | viability, T/C [37] 0.88% | viability, T/C [40] 0.22% | viability, T/C [41] 0.13% | viability, T/C [24] 0.17% | viability, T/C [25] 0.16% | viability, T/C [42] 0.14% | viability, T/C [43] 0.12% | viability, T/C [44] 0.12% | viability, T/C [45] 0.2%
2160 nM: IC50 [3]
inactive: viability, T/C [8] 120% | viability, T/C [9] 102% | viability, T/C [26] 107% | viability, T/C [27] 110% | viability, T/C [28] 19.2% | viability, T/C [12] 115% | viability, T/C [13] 117% | viability, T/C [30] 117% | viability, T/C [31] 119% | viability, T/C [32] 22.1% | viability, T/C [16] 126% | viability, T/C [17] 125% | viability, T/C [34] 112% | viability, T/C [35] 116% | viability, T/C [36] 17.2% | viability, T/C [20] 80.2% | viability, T/C [21] 44.8% | viability, T/C [38] 29.2% | viability, T/C [39] 7.62%
2260 nM: IC50 [2]
90.7 nM: IC50 [4]

CCN1CCN(Cc2ccc(Nc3ncc(F)c(-c4cc(F)c5nc(C)n(C(C)C)c5c4)n3)nc2)CC1 + COc1cc2nc(C)nc(NC(C)c3cc(N)cc(C(F)(F)F)c3)c2cc1OC1CCOC1
active: viability, T/C [42] 4.89% | viability, T/C [43] 0.61%
> 1000 nM: IC50 [1] | IC50 [2] | IC50 [3]
64 nM: IC50 [5]
714 nM: IC50 [4]
inactive: viability, T/C [6] 97.9% | viability, T/C [7] 93.2% | viability, T/C [8] 118% | viability, T/C [9] 165% | viability, T/C [26] 173% | viability, T/C [27] 69.4% | viability, T/C [10] 101% | viability, T/C [11] 93.6% | viability, T/C [12] 130% | viability, T/C [13] 163% | viability, T/C [30] 146% | viability, T/C [31] 58% | viability, T/C [14] 96% | viability, T/C [15] 109% | viability, T/C [16] 115% | viability, T/C [17] 157% | viability, T/C [34] 123% | viability, T/C [35] 50.9% | viability, T/C [18] 91.9% | viability, T/C [19] 98.1% | viability, T/C [20] 138% | viability, T/C [21] 157% | viability, T/C [38] 108% | viability, T/C [39] 26.4% | viability, T/C [22] 103% | viability, T/C [23] 104% | viability, T/C [24] 100% | viability, T/C [25] 18.2%

CC1(C)CCC(CN2CCN(c3ccc(C(=O)NS(=O)(=O)c4ccc(NCC5CCOCC5)c([N+](=O)[O-])c4)c(Oc4cnc5[nH]ccc5c4)c3)CC2)=C(c2ccc(Cl)cc2)C1 + COc1cc2nc(C)nc(NC(C)c3cc(N)cc(C(F)(F)F)c3)c2cc1OC1CCOC1
2190 nM: IC50 [1]
472 nM: IC50 [5]
active: viability, T/C [29] 0.68% | viability, T/C [33] 0.6% | viability, T/C [37] 1.19% | viability, T/C [41] 1.05% | viability, T/C [44] 5.28% | viability, T/C [45] 0.64%
2070 nM: IC50 [2] | IC50 [4]
1980 nM: IC50 [3]
inactive: viability, T/C [8] 102% | viability, T/C [9] 99.2% | viability, T/C [26] 108% | viability, T/C [27] 99.7% | viability, T/C [28] 26.4% | viability, T/C [12] 92.5% | viability, T/C [13] 107% | viability, T/C [30] 104% | viability, T/C [31] 103% | viability, T/C [32] 19.9% | viability, T/C [16] 104% | viability, T/C [17] 108% | viability, T/C [34] 110% | viability, T/C [35] 100% | viability, T/C [36] 15.7% | viability, T/C [20] 106% | viability, T/C [21] 103% | viability, T/C [38] 111% | viability, T/C [39] 115% | viability, T/C [40] 15.6% | viability, T/C [24] 77.3% | viability, T/C [25] 91.8% | viability, T/C [42] 53.2% | viability, T/C [43] 33.6%

CCNC(=O)CC1N=C(c2ccc(Cl)cc2)c2cc(OC)ccc2-n2c(C)nnc21 (stereo not given)
> 10000 nM and 5780 nM: IC50 (curve of compound)
inactive: viability, T/C (compound 0.0316 µM) 96.3% [middle of 5 runs] | viability, T/C (compound 0.1 µM) 101% (4×) and 92.8%

Cn1ncnc1[C@H]1c2n[nH]c(=O)c3cc(F)cc(c23)N[C@@H]1c1ccc(F)cc1
inactive: viability, T/C (compound 0.000316 µM) 99% [middle of 5 runs] | viability, T/C (compound 0.001 µM) 98% [middle of 5 runs] | viability, T/C (compound 0.00316 µM) 101% [middle of 5 runs] | viability, T/C (compound 0.01 µM) 98.1% [middle of 5 runs] | viability, T/C (compound 0.0316 µM) 91% [middle of 5 runs] | viability, T/C (compound 0.1 µM) 80.8% [middle of 5 runs]
> 100 nM: IC50 (curve of compound)

COC(=O)c1ccc2c(C(=Nc3ccc(N(C)C(=O)CN4CCN(C)CC4)cc3)c3ccccc3)c(O)[nH]c2c1 + C=CC(=O)N1CCN(c2nc(OCC3CCCN3C)nc3c2CCN(c2cccc4cccc(C)c24)C3)CC1CC#N
446 nM: IC50 [3]
inactive: viability, T/C (second compound 0.0316 µM, first compound 0.0316 µM) 103% | viability, T/C (second compound 0.0316 µM, first compound 0.1 µM) 104% | viability, T/C (second compound 0.0316 µM, first compound 0.316 µM) 113% | viability, T/C (second compound 0.0316 µM, first compound 1 µM) 85.3% | viability, T/C (second compound 0.0316 µM, first compound 3.16 µM) 21.7% | viability, T/C (second compound 0.0316 µM, first compound 10 µM) 13.4% | viability, T/C [8] 91.5% | viability, T/C [9] 92.3% | viability, T/C [26] 103% | viability, T/C [27] 33% | viability, T/C [12] 97.8% | viability, T/C [13] 109% | viability, T/C [30] 102% | viability, T/C [31] 47.5% | viability, T/C [16] 105% | viability, T/C [17] 86.3% | viability, T/C [34] 65.3% | viability, T/C [35] 20.9%
active: viability, T/C [28] 12.6% | viability, T/C [29] 7.16% | viability, T/C [32] 7.39% | viability, T/C [33] 5.61% | viability, T/C [36] 1.39% | viability, T/C [37] 1.01% | viability, T/C [20] 0.29% | viability, T/C [21] 0.26% | viability, T/C [38] 0.23% | viability, T/C [39] 0.11% | viability, T/C [40] 0.77% | viability, T/C [41] 0.09%
949 nM: IC50 [2]
732 nM: IC50 [1]
< 31.6 nM: IC50 [4]
1890 nM: IC50 (curve of first compound, second compound 0.0316 µM)
